What all share (assay type): cell-based
Series [1] concerns human red blood cells (hRBC). Kind of series: Hemolysis of human red blood cells. Particulars: red cells of human, 1 h, 100 μg/mL. The gist of the method:
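Washed fresh human erythrocytes (20% v/v, ~0.9×10^9 cells/mL final) were incubated with peptides at 100 μg/mL for 1 h at 37 °C with shaking. Supernatant OD540 measured; hemolysis expressed as % of 2.5% Triton X-100 lysis, with PBS/0.001% acetic acid as 0%.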

In series [2] the test system is Klebsiella pneumoniae SSI #3010. Particulars: SSI #3010. The gist of the method: (§1)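 Read-out is the minimal inhibitory concentration in μg/mL, taken as the lowest peptide level without visible growth after 18-20 h at 35° C. Testing followed CLSI broth microdilution in cation-adjusted Mueller-Hinton II broth plus 0.002% Polysorbate 80, with roughly 10^6 CFU/mL.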
Series [3] has as its system Pseudomonas aeruginosa ATCC 27853. The note with it: ATCC 27853. Summed up:
as §1

Another series has as its system Escherichia coli 926415. Particulars: 926415.
The subject of series [4] is Klebsiella pneumoniae 968733. Particulars: 968733.
In series [5] the test system is Escherichia coli ATCC 25922. Particulars: ATCC 25922. Summed up: as §1
Series [6] relates to Acinetobacter baumannii DSM 30008. Particulars: DSM 30008. The gist of the method:
as §1

In series [7] the test system is Acinetobacter baumannii 872842. Particulars: 872842.

Consider 7 compounds from patent US10829520B2, “Beta-hairpin peptidomimetics” (POLYPHOR AG, priority 2015, dated 2020).

Where a SMILES comes first, the peptide text is derived from it. Bridges are numbered along the chain shown (N, C = ends). [ ]: non-standard residue; d: D form. Pro(trans-4-F) = O=C(O)[C@@H]1C[C@@H](F)CN1; Hyp = O=C(O)[C@@H]1C[C@@H](O)CN1; Pen = CC(C)(S)[C@H](N)C(=O)O; dDab = NCC[C@@H](N)C(=O)O; Orn = NCCC[C@H](N)C(=O)O; Dab = NCC[C@H](N)C(=O)O

`CC(=O)N[C@@H](Cc1c[nH]c2ccccc12)C(=O)N[C@@H](C)C(=O)N[C@H](C(=O)N[C@H]1CSSC[C@@H](C(=O)N[C@@H](Cc2ccc(O)cc2)C(=O)N[C@@H](C)C(=O)N[C@@H](CCCN)C(=O)N[C@H](CCN)C(=O)N[C@@H](CCN)C(=O)N[C@H]2CCNC(=O)[C@H]([C@@H](C)O)NC(=O)[C@H](CCN)NC(=O)[C@H](CCN)NC(=O)[C@H](CC(C)C)NC(=O)[C@@H](Cc3ccccc3)NC(=O)[C@H](CCN)NC2=O)NC(=O)[C@H](CC(C)C)NC(=O)[C@H](CCN)NC(=O)[C@H]2CCCN2C(=O)[C@H](C(C)C)NC1=O)C(C)C` [Ex. 120] (Ac-WAVCV[dP][Dab]LCYA[Orn][dDab][Dab][Dab][Dab][dF]L[Dab][Dab]T; disulfide 4-9; lactam 15-C): the “Hemolysis at 100 μg/mL” value in series [1] was less than 1%. The “Klebsiella pneumoniae SSI #3010 MIC” value in series [2] was 1 µg/mL. Also, in series [3], the “Pseudomonas aeruginosa ATCC 27853 MIC” value turned out to be 1 µg/mL. For the same compound, the “Escherichia coli 926415 MIC” value with Escherichia coli 926415 came to 2 µg/mL. The “Klebsiella pneumoniae 968733 MIC” value in series [4] was determined as 8 µg/mL. For the same compound, in series [5], the “Escherichia coli ATCC 25922 MIC” value is 1 µg/mL. The “Acinetobacter baumannii DSM 30008 MIC” value in series [6] was determined as 0.25 µg/mL. In addition, in series [7], the “Acinetobacter baumannii 872842 MIC” value amounted to 0.25 µg/mL.

As to `CC(C)C[C@@H]1NC(=O)[C@@H](CC(C)C)NC(=O)[C@H](CCN)NC(=O)[C@@H](NC(=O)[C@H](CCN)NC(=O)[C@H](NC(=O)[C@H](CCN)NC(=O)[C@H](CCCN)NC(=O)[C@@H]2CSSC[C@H](NC(=O)[C@@H](N)Cc3c[nH]c4ccccc34)C(=O)N[C@@H](C(C)C)C(=O)N[C@@H](C)C(=O)N[C@@H](CO)C(=O)N3CCC[C@@H]3C(=O)N3CCC[C@H]3C(=O)N[C@@H](CC(C)C)C(=O)N[C@@H](CO)C(=O)N[C@@H](Cc3ccc(O)cc3)C(=O)N2)[C@H](C)O)CCNC(=O)[C@H]([C@@H](C)O)NC(=O)[C@H](CCN)NC(=O)[C@H](CCN)NC1=O` [Ex. 121] (H-WCVAS[dP]PLSYC[Orn][Dab][dT][Dab][Dab][Dab][dL]L[Dab][Dab]T; disulfide 2-11; lactam 16-C), in series [1], the “Hemolysis at 100 μg/mL” value is given as less than 1%. Also, the “Klebsiella pneumoniae SSI #3010 MIC” value in series [2] was found to be 0.25 µg/mL. In addition, the “Pseudomonas aeruginosa ATCC 27853 MIC” value in series [3] amounted to 0.5 µg/mL. Besides, in the series with Escherichia coli 926415, the “Escherichia coli 926415 MIC” value is 0.125 µg/mL. In series [4], the “Klebsiella pneumoniae 968733 MIC” value amounted to 0.25 µg/mL. The “Escherichia coli ATCC 25922 MIC” value in series [5] turned out to be 0.125 µg/mL. Moreover, the “Acinetobacter baumannii DSM 30008 MIC” value in series [6] came to 0.125 µg/mL. Also, in series [7], the “Acinetobacter baumannii 872842 MIC” value was found to be 0.125 µg/mL.

As for `CC(C)C[C@@H]1NC(=O)[C@@H](CC(C)C)NC(=O)[C@H](CCN)NC(=O)[C@@H](NC(=O)[C@H](CCN)NC(=O)[C@@H](NC(=O)[C@H](CCN)NC(=O)[C@H](CCN)NC(=O)[C@H]2NC(=O)[C@H](Cc3ccc(O)cc3)NC(=O)[C@H](CO)NC(=O)[C@H](CC(C)C)NC(=O)[C@@H]3CCCN3C(=O)[C@H]3CCCN3C(=O)[C@H](CO)NC(=O)[C@H](C)NC(=O)[C@H](C(C)C)NC(=O)[C@@H](NC(=O)[C@@H](N)Cc3c[nH]c4ccccc34)C(C)(C)SSC2(C)C)[C@@H](C)O)CCNC(=O)[C@H]([C@@H](C)O)NC(=O)[C@H](CCN)NC(=O)[C@H](CCN)NC1=O` [Ex. 122] (H-W[Pen]VAS[dP]PLSY[Pen][Dab][Dab]T[Dab][Dab][Dab][dL]L[Dab][Dab]T; disulfide 2-11; lactam 16-C), the “Hemolysis at 100 μg/mL” value in series [1] stood at 2%. The “Klebsiella pneumoniae SSI #3010 MIC” value in series [2] is 0.5 µg/mL. The “Pseudomonas aeruginosa ATCC 27853 MIC” value in series [3] is 0.5 µg/mL. Besides, in the series on Escherichia coli 926415, the “Escherichia coli 926415 MIC” value worked out at 0.25 µg/mL. The “Klebsiella pneumoniae 968733 MIC” value in series [4] came to 1 µg/mL. In addition, in series [5], the “Escherichia coli ATCC 25922 MIC” value is 0.0625 µg/mL. Moreover, the “Acinetobacter baumannii DSM 30008 MIC” value in series [6] was 0.125 µg/mL. In addition, the “Acinetobacter baumannii 872842 MIC” value in series [7] turned out to be 0.03125 µg/mL.

Regarding `CC(C)C[C@@H]1NC(=O)[C@@H](CC(C)C)NC(=O)[C@H](CCN)NC(=O)[C@@H](NC(=O)[C@H](CCN)NC(=O)[C@@H](NC(=O)[C@H](CCN)NC(=O)[C@H](CCN)NC(=O)[C@@H]2CSSC[C@H](NC(=O)[C@@H](N)Cc3c[nH]c4ccccc34)C(=O)N[C@@H](C(C)C)C(=O)N[C@@H](C)C(=O)N[C@@H](CO)C(=O)N3CCC[C@@H]3C(=O)N3C[C@H](O)C[C@H]3C(=O)N[C@@H](CC(C)C)C(=O)N[C@@H](CO)C(=O)N[C@@H](Cc3ccc(O)cc3)C(=O)N2)[C@@H](C)O)CCNC(=O)[C@H]([C@@H](C)O)NC(=O)[C@H](CCN)NC(=O)[C@H](CCN)NC1=O` [Ex. 123] (H-WCVAS[dP][Hyp]LSYC[Dab][Dab]T[Dab][Dab][Dab][dL]L[Dab][Dab]T; disulfide 2-11; lactam 16-C), the “Hemolysis at 100 μg/mL” value in series [1] is listed as less than 1%. Moreover, in series [2], the “Klebsiella pneumoniae SSI #3010 MIC” value came to 0.125 µg/mL. The “Pseudomonas aeruginosa ATCC 27853 MIC” value in series [3] amounted to 1 µg/mL. For the same compound, the “Escherichia coli 926415 MIC” value with Escherichia coli 926415 is 0.25 µg/mL. Moreover, the “Klebsiella pneumoniae 968733 MIC” value in series [4] was 4 µg/mL. Also, in series [5], the “Escherichia coli ATCC 25922 MIC” value stood at 0.125 µg/mL. The “Acinetobacter baumannii DSM 30008 MIC” value in series [6] was found to be 0.25 µg/mL. In series [7], the “Acinetobacter baumannii 872842 MIC” value was determined as 0.0625 µg/mL.

Take `CC(C)C[C@@H]1NC(=O)[C@@H](CC(C)C)NC(=O)[C@H](CCN)NC(=O)[C@@H](NC(=O)[C@H](CCN)NC(=O)[C@@H](NC(=O)[C@H](CCN)NC(=O)[C@H](CCN)NC(=O)[C@@H]2CSSC[C@H](NC(=O)[C@@H](N)Cc3c[nH]c4ccccc34)C(=O)N[C@@H](C(C)C)C(=O)N[C@@H](C)C(=O)N[C@@H](CO)C(=O)N3CCC[C@@H]3C(=O)N3C[C@H](F)C[C@H]3C(=O)N[C@@H](CC(C)C)C(=O)N[C@@H](CO)C(=O)N[C@@H](Cc3ccc(O)cc3)C(=O)N2)[C@@H](C)O)CCNC(=O)[C@H]([C@@H](C)O)NC(=O)[C@H](CCN)NC(=O)[C@H](CCN)NC1=O` [Ex. 124] (H-WCVAS[dP][Pro(trans-4-F)]LSYC[Dab][Dab]T[Dab][Dab][Dab][dL]L[Dab][Dab]T; disulfide 2-11; lactam 16-C): in series [1], the “Hemolysis at 100 μg/mL” value is reported as 1%. Further, the “Klebsiella pneumoniae SSI #3010 MIC” value in series [2] is 0.125 µg/mL. For the same compound, the “Pseudomonas aeruginosa ATCC 27853 MIC” value in series [3] stood at 0.5 µg/mL. The “Escherichia coli 926415 MIC” value with Escherichia coli 926415 is 0.125 µg/mL. Also, in series [4], the “Klebsiella pneumoniae 968733 MIC” value worked out at 0.5 µg/mL. The “Escherichia coli ATCC 25922 MIC” value in series [5] stood at 0.0625 µg/mL. For the same compound, the “Acinetobacter baumannii DSM 30008 MIC” value in series [6] stood at 0.125 µg/mL. Moreover, the “Acinetobacter baumannii 872842 MIC” value in series [7] worked out at 0.25 µg/mL.

With `CC(C)C[C@@H]1NC(=O)[C@H](C)NC(=O)[C@H]2CCCN2C(=O)[C@H](CO)NC(=O)[C@H](C)NC(=O)[C@H](C(C)C)NC(=O)[C@@H](NC(=O)[C@@H](N)Cc2c[nH]c3ccccc23)CSSC[C@@H](C(=O)N[C@@H](CCN)C(=O)N[C@@H](CCN)C(=O)N[C@H](C(=O)N[C@@H](CCN)C(=O)N[C@H]2CCNC(=O)[C@H]([C@@H](C)O)NC(=O)[C@H](CCN)NC(=O)[C@H](CCN)NC(=O)[C@H](CC(C)C)NC(=O)[C@@H](CC(C)C)NC(=O)[C@H](CCN)NC2=O)[C@@H](C)O)NC(=O)[C@H](Cc2ccc(O)cc2)NC(=O)[C@H](CO)NC1=O` [Ex. 125] (H-WCVAS[dP]ALSYC[Dab][Dab]T[Dab][Dab][Dab][dL]L[Dab][Dab]T; disulfide 2-11; lactam 16-C), the “Hemolysis at 100 μg/mL” value in series [1] was 1%. Besides, the “Klebsiella pneumoniae SSI #3010 MIC” value in series [2] was determined as 0.125 µg/mL. For the same compound, the “Pseudomonas aeruginosa ATCC 27853 MIC” value in series [3] was determined as 0.5 µg/mL. Also, in the series with Escherichia coli 926415, the “Escherichia coli 926415 MIC” value came out at 0.25 µg/mL. In series [4], the “Klebsiella pneumoniae 968733 MIC” value was found to be 1 µg/mL. The “Escherichia coli ATCC 25922 MIC” value in series [5] is 0.0625 µg/mL. For the same compound, in series [6], the “Acinetobacter baumannii DSM 30008 MIC” value was 0.125 µg/mL. Moreover, the “Acinetobacter baumannii 872842 MIC” value in series [7] was found to be 0.0625 µg/mL.

Regarding `CC(C)C[C@@H]1NC(=O)[C@H]([C@@H](C)O)NC(=O)[C@H]2CCCN2C(=O)[C@H](CO)NC(=O)[C@H](C)NC(=O)[C@H](C(C)C)NC(=O)[C@@H](NC(=O)[C@@H](N)Cc2c[nH]c3ccccc23)CSSC[C@@H](C(=O)NCC(=O)N[C@@H](CCN)C(=O)N[C@H](C(=O)N[C@@H](CCN)C(=O)N[C@H]2CCNC(=O)[C@H]([C@@H](C)O)NC(=O)[C@H](CCN)NC(=O)[C@H](CCN)NC(=O)[C@H](CC(C)C)NC(=O)[C@@H](CC(C)C)NC(=O)[C@H](CCN)NC2=O)[C@@H](C)O)NC(=O)[C@H](Cc2ccc(O)cc2)NC(=O)[C@H](CO)NC1=O` [Ex. 126] (H-WCVAS[dP]TLSYCG[Dab]T[Dab][Dab][Dab][dL]L[Dab][Dab]T; disulfide 2-11; lactam 16-C), in series [1], the “Hemolysis at 100 μg/mL” value stood at 1%. In series [2], the “Klebsiella pneumoniae SSI #3010 MIC” value is 0.0625 µg/mL. In addition, the “Pseudomonas aeruginosa ATCC 27853 MIC” value in series [3] was found to be 0.5 µg/mL. The “Escherichia coli 926415 MIC” value in the series with Escherichia coli 926415 was 0.5 µg/mL. For the same compound, the “Klebsiella pneumoniae 968733 MIC” value in series [4] came to 0.5 µg/mL. Also, the “Escherichia coli ATCC 25922 MIC” value in series [5] is 0.0625 µg/mL. Further, the “Acinetobacter baumannii DSM 30008 MIC” value in series [6] is 0.0625 µg/mL. For the same compound, in series [7], the “Acinetobacter baumannii 872842 MIC” value came out at 0.125 µg/mL.
